{
  "source": "patent US8349316B2",
  "about": "“Lactobacillus fermentum SG-A95 for improving oral bacterial groups and health care compositions thereof” (priority 2010, dated 2013)",
  "key": {"[1]": {"system": "Streptococcus sanguis (ATCC 49295)", "test": "Disc agar diffusion test", "assay_type": "cell-based", "conditions": "6 mm paper disc, 37, anaerobic, 24 hours, mean±S.D. (n=3); zone not over 6 mm = negative", "protocol": "(§1) Lactobacillus fermentum SG-[…] was cultured in liquid medium. MRS medium was used in this embodiment. […]. The fermentation broth was concentrated into 30-fold of original concentration and dialyzed with SPECTRA/POR® Dialysis Membrane (MWCO:3500, Spectrum Laboratories Inc, CA) for 48 hours. Lactobacillus fermentum SG-[…] and concentrate fermentation product were diluted into various concentrations according to experimental requirements. Disc agar diffusion test, broth dilution method, and co-cultivation test of Lactobacillus fermentum SG-[…] with Streptococcus mutans (ATCC 25175), Streptococcus sanguis (ATCC 49295), Porphyromonas gingivalis (ATCC 33277), and Actinomyces viscosus (ATCC 15987) were separately performed to understand the inhibition of pathogen growth. Above four pathogens strains were purchased from Bioresource Collection and Research Center of Food Industry Research and Development Institute in Taiwan or ATCC. […] Dip bacteria culture with sterile cotton swab for 3 seconds, and each bacteria was smeared on agar plates in three directions to evenly distribute the incoculum. After dialyzing 30-fold fermentation product of Lactobacillus fermentum SG-[…], adjust concentrate to 4-fold concentrate (LFP4), 2-fold concentrate (LFP2) and 1-fold (LFP1) (unconcentrated fermentation broth). […] The diameter of sterile paper disc was 6 mm. The positive bacterial inhibition effect was determined by over 6 mm bacterial inhibition zone. Otherwise, it was defined as negative bacterial inhibition effect. The cultural condition was under the temperature of 37 for 24 hours. The paper disc was used in control group containing tetracycline. The inhibition zone value was shown as mean±S.D. (n=3)."}, "[2]": {"system": "Streptococcus mutans (ATCC 25175)", "test": "Disc agar diffusion test", "assay_type": "cell-based", "conditions": "6 mm paper disc, 37, anaerobic, 24 hours, mean±S.D. (n=3); zone not over 6 mm = negative", "protocol": "as §1"}, "[3]": {"system": "Actinomyces viscosus (ATCC 15987)", "test": "Disc agar diffusion test", "assay_type": "cell-based", "conditions": "6 mm paper disc, 37, anaerobic, 24 hours, mean±S.D. (n=3); zone not over 6 mm = negative", "protocol": "as §1"}, "[4]": {"system": "Porphyromonas gingivalis (ATCC 33277)", "test": "Disc agar diffusion test", "assay_type": "cell-based", "conditions": "6 mm paper disc, 37, anaerobic, 24 hours, mean±S.D. (n=3); zone not over 6 mm = negative", "protocol": "as §1"}, "[5]": {"system": "artificially induced periodontal disease (ligature wire, Streptococcus mutans inoculated in gum tissue)", "test": "Evaluation of preventive effect for animal periodontal disease", "assay_type": "in vivo, Balb/c mice", "conditions": "prevention group; for mice periodontal pocket depth: mean±S.D., listed as pTC", "protocol": "(§2) This trial included treatment groups and control groups. The-treatment group of Lactobacillus fermentum SG-A95 were divided into 6 groups as follows: 3 groups of dialyzed Lactobacillus fermentum SG-A95 fermentation product concentrate such as 4-fold, 2-fold, and 1-fold (unconcentrated fermentation broth) and 3 groups of Lactobacillus fermentum SG-A95 in various numbers of bacteria such as 1×10^9, 2×10^9 and 5×10^9. Two control groups were treated with 0.267 mg/mL of tetracycline and distilled water.\nTwelve of 8-week-old female Balb/c mice were selected for each group (Table 2). The mice were administered with various concentrations of Lactobacillus fermentum SG-A95 fermentation product or live Lactobacillus fermentum SG-A95, and 1 mL of 0.267 mg/mL tetracyccline or distilled water separately. […] Their pathological symptoms were observed and recorded until sacrificing all animals. Until the control group (feeding with distilled water, mock-treated group) showing gum swelling and dental plaque appearance diagnosed by chief dentists, the ligature wire was removed and inoculation of dental pathogen was stopped. At day 4, 8, 12, and 16 after wire removal, mice periodontal pocket depth was examined, 3 mice from each group were killed for blood sampling and samples were collected for histological analysis.\n(§3) Control group was used as a standard to examine subjects from each group by Mann-Whitney test.\n(§4) Experimental data was shown as mean±S.D. The statistical variation of treatment groups and control groups of mice periodontal pocket was performed by One-Way ANOVA and Dunnett multiple post hoc comparison in longitudinal study, and by One-Way ANOVA and LSD multiple post hoc comparison in cross-sectional study. Besides, Mann-Whitney test was used to examine the number of periodontal pocket improving individuals. The statistical significance level of p value was 0.05."}, "[6]": {"system": "artificially induced periodontal disease (ligature wire, Streptococcus mutans inoculated in gum tissue)", "test": "Evaluation of therapeutic effect for animal periodontal disease", "assay_type": "in vivo, Balb/c mice", "conditions": "treatment group; for mice periodontal pocket depth: mean±S.D.", "protocol": "as §2\nTwelve of 8-week-old female Balb/c mice were selected for each group (Table 3). […] After diagnosis of diseased tissue by chief dentists, they were administered different concentrations of Lactobacillus fermentum SG-A95 fermentation product, live Lactobacillus fermentum SG-A95, 1 mL of 0.267 mg/mL tetracycline or distill water every day. The symptoms were recorded. The wire was removed at the beginning of the treatment and stop periodontal pathogen inoculation. At day 4, 8, 12, and 16 after wire removal, mice periodontal pocket depth was examined. 3 mice from each group were killed for blood sampling and histological analysis.\nas §3, §4"}},
  "data": [
    {"smiles": "CN(C)[C@@H]1C(O)=C(C(N)=O)C(=O)[C@@]2(O)C(O)=C3C(=O)c4c(O)cccc4[C@@](C)(O)[C@H]3C[C@@H]12", "note": "[tetracycline]", "values": [
      {"measurement": "Bacterial inhibition zone, Streptococcus sanguis", "setting": "[1]", "value": "25.9 ± 1.2", "unit": "mm"},
      {"measurement": "Bacterial inhibition zone, Streptococcus mutans", "setting": "[2]", "value": "29.7 ± 2.0", "unit": "mm"},
      {"measurement": "Bacterial inhibition zone, Actinomyces viscosus", "setting": "[3]", "value": "48.2 ± 2.4", "unit": "mm"},
      {"measurement": "Bacterial inhibition zone, Porphyromonas gingivalis", "setting": "[4]", "value": "33.4 ± 2.2", "unit": "mm"},
      {"measurement": "periodontal pocket improvement percentage (percentage of improving individual)", "setting": "[5]; Day 4, against pMT by Mann-Whitney test", "value": 62, "unit": "%"},
      {"measurement": "mice periodontal pocket depth", "setting": "[5]; Day 4 after wire removal", "value": "0.84 ± 0.50", "unit": "mm"},
      {"measurement": "periodontal pocket improvement percentage (percentage of improving individual)", "setting": "[5]; Day 8, against pMT by Mann-Whitney test", "value": 50, "unit": "%"},
      {"measurement": "mice periodontal pocket depth", "setting": "[5]; Day 8 after wire removal", "value": "0.70 ± 0.34", "unit": "mm"},
      {"measurement": "periodontal pocket improvement percentage (percentage of improving individual)", "setting": "[5]; Day 12, against pMT by Mann-Whitney test", "value": 71, "unit": "%"},
      {"measurement": "mice periodontal pocket depth", "setting": "[5]; Day 12 after wire removal", "value": "0.56 ± 0.26", "unit": "mm"},
      {"measurement": "periodontal pocket improvement percentage (percentage of improving individual)", "setting": "[5]; Day 16, against pMT by Mann-Whitney test", "value": 100, "unit": "%"},
      {"measurement": "mice periodontal pocket depth", "setting": "[5]; Day 16 after wire removal", "value": "0.49 ± 0.25", "unit": "mm"},
      {"measurement": "periodontal pocket improvement percentage (percentage of improving individual)", "setting": "[6]; Day 4, against tMT by Mann-Whitney test", "value": 30, "unit": "%"},
      {"measurement": "mice periodontal pocket depth", "setting": "[6]; Day 4 after wire removal, listed as pTC", "value": "1.05 ± 0.64", "unit": "mm"},
      {"measurement": "mice periodontal pocket depth", "setting": "[6]; Day 4 after wire removal, listed as tTC", "value": "1.05 ± 0.64", "unit": "mm"},
      {"measurement": "periodontal pocket improvement percentage (percentage of improving individual)", "setting": "[6]; Day 8, against tMT by Mann-Whitney test", "value": 20, "unit": "%"},
      {"measurement": "mice periodontal pocket depth", "setting": "[6]; Day 8 after wire removal, listed as pTC", "value": "0.89 ± 0.44", "unit": "mm"},
      {"measurement": "mice periodontal pocket depth", "setting": "[6]; Day 8 after wire removal, listed as tTC", "value": "0.89 ± 0.44", "unit": "mm"},
      {"measurement": "periodontal pocket improvement percentage (percentage of improving individual)", "setting": "[6]; Day 12, against tMT by Mann-Whitney test", "value": 47, "unit": "%"},
      {"measurement": "mice periodontal pocket depth", "setting": "[6]; Day 12 after wire removal", "value": "0.63 ± 0.37", "unit": "mm"},
      {"measurement": "periodontal pocket improvement percentage (percentage of improving individual)", "setting": "[6]; Day 16, against tMT by Mann-Whitney test", "value": 33, "unit": "%"},
      {"measurement": "mice periodontal pocket depth", "setting": "[6]; Day 16 after wire removal, listed as pTC", "value": "0.61 ± 0.34", "unit": "mm"},
      {"measurement": "mice periodontal pocket depth", "setting": "[6]; Day 16 after wire removal, listed as tTC", "value": "0.48 ± 0.33", "unit": "mm"}
    ]}
  ]
}
